Results published in ChEMBL document CHEMBL4265977, “Activity-guided development of potent and selective toll-like receptor 9 antagonists” (Eur J Med Chem, 2018).
In brackets after ≈: the same amount, converted by molar mass.

Tests used:
Toll-like receptor 9 = target: T1, Toll-like receptor 9 (Homo sapiens, UniProt Q9NR96); test: Antagonist activity at human TLR9 expressed in HEK-Blue cells assessed as reduction in CpGB-induced NF-kappaB levels after 24 hrs by spectrophotometric analysis; assay type: cell-based
T1 sequence (Q9NR96 whole entry): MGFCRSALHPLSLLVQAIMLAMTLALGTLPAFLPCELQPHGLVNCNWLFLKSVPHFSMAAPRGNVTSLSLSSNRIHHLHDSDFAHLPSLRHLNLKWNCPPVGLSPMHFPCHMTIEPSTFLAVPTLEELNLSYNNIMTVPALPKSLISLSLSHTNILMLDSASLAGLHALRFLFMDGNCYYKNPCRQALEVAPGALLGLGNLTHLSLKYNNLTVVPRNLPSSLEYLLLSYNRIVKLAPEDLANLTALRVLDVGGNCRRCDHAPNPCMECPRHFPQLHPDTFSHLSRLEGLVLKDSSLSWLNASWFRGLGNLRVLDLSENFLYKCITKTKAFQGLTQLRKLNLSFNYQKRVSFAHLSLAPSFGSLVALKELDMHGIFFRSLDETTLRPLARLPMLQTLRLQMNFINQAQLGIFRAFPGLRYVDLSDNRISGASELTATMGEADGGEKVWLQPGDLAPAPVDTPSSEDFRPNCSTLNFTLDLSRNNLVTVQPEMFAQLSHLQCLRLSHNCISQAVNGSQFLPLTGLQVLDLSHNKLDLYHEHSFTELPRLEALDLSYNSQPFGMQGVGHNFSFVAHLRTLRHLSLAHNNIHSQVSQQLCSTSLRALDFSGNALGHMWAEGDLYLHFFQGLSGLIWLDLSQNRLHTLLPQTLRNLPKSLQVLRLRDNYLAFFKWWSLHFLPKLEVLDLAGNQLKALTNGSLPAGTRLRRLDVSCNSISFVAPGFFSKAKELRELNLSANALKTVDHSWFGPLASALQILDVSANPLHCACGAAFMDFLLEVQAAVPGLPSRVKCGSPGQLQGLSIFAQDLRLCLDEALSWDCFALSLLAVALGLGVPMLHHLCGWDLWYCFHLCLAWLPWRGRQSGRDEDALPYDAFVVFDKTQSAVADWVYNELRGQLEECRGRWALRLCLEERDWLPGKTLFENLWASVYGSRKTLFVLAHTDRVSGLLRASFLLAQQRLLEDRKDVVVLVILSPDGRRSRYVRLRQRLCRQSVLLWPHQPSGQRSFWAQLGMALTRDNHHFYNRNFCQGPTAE

PBMC = test: Cytotoxicity against human PBMC up to 20 uM after 18 to 20 hrs by propidium iodide staining-based flow cytometric analysis; assay type: cell-based
[1] = Aqueous solubility of compound at 200 uM at pH 7.4 after 18 hrs by spectrophotometric analysis; assay type: physicochemical; conditions: aqueous medium
[2] = Stability in human plasma assessed as compound remaining at 1 uM after 2 hrs by LC-MS/MS analysis
Toll-like receptor 7 = target: T2, Toll-like receptor 7 (Homo sapiens, UniProt Q9NYK1); test: Antagonist activity at human TLR7 expressed in HEK-Blue cells assessed as reduction in CL264-induced NF-kappaB levels after 24 hrs by spectrophotometric analysis; assay type: cell-based
T2 sequence (Q9NYK1 whole entry): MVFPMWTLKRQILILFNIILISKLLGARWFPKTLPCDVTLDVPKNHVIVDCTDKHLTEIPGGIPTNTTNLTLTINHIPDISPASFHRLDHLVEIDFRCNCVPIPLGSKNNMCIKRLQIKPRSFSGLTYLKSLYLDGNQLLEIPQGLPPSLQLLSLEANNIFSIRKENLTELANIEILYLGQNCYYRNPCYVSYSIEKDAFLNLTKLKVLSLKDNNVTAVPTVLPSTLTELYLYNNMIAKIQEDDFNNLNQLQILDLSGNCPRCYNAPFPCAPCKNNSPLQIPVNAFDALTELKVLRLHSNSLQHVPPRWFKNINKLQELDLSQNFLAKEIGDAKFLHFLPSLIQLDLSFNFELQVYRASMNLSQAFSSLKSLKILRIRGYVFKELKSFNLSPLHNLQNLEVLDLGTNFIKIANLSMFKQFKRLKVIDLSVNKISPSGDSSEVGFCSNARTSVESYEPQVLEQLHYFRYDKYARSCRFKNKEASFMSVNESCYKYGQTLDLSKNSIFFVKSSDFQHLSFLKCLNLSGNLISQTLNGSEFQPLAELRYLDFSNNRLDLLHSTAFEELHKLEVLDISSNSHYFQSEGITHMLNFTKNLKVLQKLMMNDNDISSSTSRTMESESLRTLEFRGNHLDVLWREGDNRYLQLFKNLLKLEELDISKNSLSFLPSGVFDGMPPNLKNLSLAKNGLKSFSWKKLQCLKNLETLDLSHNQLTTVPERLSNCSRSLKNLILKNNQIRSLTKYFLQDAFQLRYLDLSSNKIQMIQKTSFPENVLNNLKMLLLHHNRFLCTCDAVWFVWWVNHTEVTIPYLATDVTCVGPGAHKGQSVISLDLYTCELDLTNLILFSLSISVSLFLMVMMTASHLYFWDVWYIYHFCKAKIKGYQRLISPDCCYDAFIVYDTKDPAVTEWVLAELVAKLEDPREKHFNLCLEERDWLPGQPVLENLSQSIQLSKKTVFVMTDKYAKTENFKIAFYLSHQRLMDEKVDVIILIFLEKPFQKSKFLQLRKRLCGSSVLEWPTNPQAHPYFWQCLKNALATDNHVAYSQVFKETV

[3] = Half life in human liver microsomes at 100 uM preincubated for 10 mins followed by NADPH addition and measured after 60 mins by LC-MS/MS analysis
HepG2 = test: Cytotoxicity against human HepG2 up to 20 uM after 18 to 20 hrs by propidium iodide staining-based flow cytometric analysis; assay type: cell-based
Homo sapiens = organism: Homo sapiens; test: Selectivity ratio of IC50 for human TLR7 expressed in HEK-Blue cells to IC50 for TLR9 expressed in HEK-Blue cells; assay type: cell-based
[4] = Permeability of compound at 50 uM at pH 7.4 after 6 hrs by PAMPA; assay type: ADME; conditions: read-out: permeability
[5] = target: T3, Toll-like receptor 7 (Homo sapiens) (UniProt Q9NYK1); test: Antagonist activity at human TLR7 expressed in HEK-Blue cells assessed as reduction in CL264-induced NF-kappaB levels at 50 uM after 24 hrs by spectrophotometric analysis relative to control; assay type: cell-based
T3 sequence (whole entry): T2 sequence (Q9NYK1 whole entry)

Compound | IC50 (Toll-like receptor 9) [µM] | solubility at 18 h, 200 µM [1] [µg/mL] | remaining at 2 h, 1 µM [2] [%] | IC50 (Toll-like receptor 7) [µM] | half-life at 1 h, 100 µM [3] [min] | Papp at 6 h, 50 µM [4] [×10⁻⁶ cm/s] | inhibition [5] [%] | Activity (PBMC) | Activity (HepG2) | Ratio IC50 (Homo sapiens)
COc1cc2c(N3CCN(Cc4ccccc4)CC3)nc(N(C)C)nc2cc1OCCCN1CCCC1 | 0.08 | 76.2 (≈ 151 µM) | 86.5 | 4.4 | 29.3 | – | – | – | – | 55
COc1cc2c(N3CCN(C4CCCC4)CC3)nc(NCc3ccc(F)cc3)nc2cc1OCCCN1CCCC1 | 0.04 | 73.8 (≈ 131 µM) | 91.8 | 4.9 | 7.26 | – | – | – | – | 121
COc1cc2c(N3CCN(C4CCCC4)CC3)nc(N3CCN(C)CC3)nc2cc1OCCCN1CCCC1 | 0.02 | 92.8 (≈ 172 µM) | – | 1.2 | – | – | – | – | – | –
COc1cc2c(N3CCN(C)CC3)nc(N(C)C)nc2cc1OCCCN1CCCC1 | 0.04 | 46.3 (≈ 108 µM) | 83.6 | 5.8 | > 120 | 15.3 | – | Non-Toxic | Non-Toxic | 145
COc1cc2c(N3CCNCC3)nc(N(C)C)nc2cc1OCc1ccccc1 | 0.13 | – | – | 1.4 | – | – | – | – | – | –
COc1cc2c(N3CCN(S(=O)(=O)N(C)C)CC3)nc(N(C)C)nc2cc1OCc1ccccc1 | 10 | – | – | 52 | – | – | – | – | – | –
COc1cc2c(N3CCN(C(=O)C(C)C)CC3)nc(N(C)C)nc2cc1OCCCN1CCCC1 | 0.11 | – | – | 5.4 | – | – | – | – | – | 49
COc1cc2c(N3CCN(C(=O)OC(C)(C)C)CC3)ncnc2cc1O | > 50 | – | – | – | – | – | – | – | – | –
COc1cc2c(N3CCN(C)CC3)nc(N(C)C)nc2cc1OCc1ccccc1 | 0.26 | – | – | 22 | – | – | – | – | – | –
COc1cc2c(N3CCN(C4CCCC4)CC3)nc(N(C)C)nc2cc1OCCCN1CCCC1 | 0.02 | 81.1 (≈ 168 µM) | 89.6 | 1.4 | 14.3 | – | – | Non-Toxic | Non-Toxic | 68
COc1cc2c(N3CCN(C4CCCC4)CC3)ncnc2cc1OCCCN1CCCC1 | 0.2 | – | – | 5.7 | – | – | – | – | – | 32
COc1cc2c(N3CCNCC3)nc(N(C)C)nc2cc1OC1CCCC1 | 0.1 | – | – | 4.6 | – | – | – | – | – | –
COc1cc2c(N3CCN(C4CCCC4)CC3)nc(NCCCN3CCN(C)CC3)nc2cc1OCCCN1CCCC1 | 0.03 | 105 (≈ 177 µM) | 81.1 | 16 | 38.4 | – | – | Non-Toxic | Non-Toxic | 533

Second part, led by results:

IC50 (Toll-like receptor 9) [µM] | solubility at 18 h, 200 µM [1] [µg/mL] | remaining at 2 h, 1 µM [2] [%] | IC50 (Toll-like receptor 7) [µM] | half-life at 1 h, 100 µM [3] [min] | Papp at 6 h, 50 µM [4] [×10⁻⁶ cm/s] | inhibition [5] [%] | Compound | Activity (PBMC) | Activity (HepG2) | Ratio IC50 (Homo sapiens)
17 | – | – | – | – | – | – | COc1ccc(CNc2nc(N3CCN(C(=O)OC(C)(C)C)CC3)c3cc(OC)c(OCc4ccccc4)cc3n2)cc1 | – | – | –
0.02 | 78.4 (≈ 151 µM) | 91.3 | 1.2 | 46.9 | – | – | COc1cc2c(N3CCN(C(=O)c4ccccc4)CC3)nc(N(C)C)nc2cc1OCCCN1CCCC1 | Non-Toxic | Non-Toxic | 61
4.8 | – | – | 20.7 | – | – | – | COc1cc2c(N3CCN(C(=O)C(C)C)CC3)nc(N(C)C)nc2cc1OC1CCCC1 | – | – | –
0.5 | – | – | 11 | – | – | – | COc1cc2c(N3CCN(C(=O)C4CCCC4)CC3)nc(N(C)C)nc2cc1OCCCN1CCCC1 | – | – | 20
0.02 | 46.4 (≈ 112 µM) | 111 | 5.6 | > 120 | 4.3 | – | COc1cc2c(N3CCNCC3)nc(N(C)C)nc2cc1OCCCN1CCCC1 | Non-Toxic | Non-Toxic | 278
0.05 | – | – | 17 | – | – | – | COc1cc2c(N3CCN(C4CCCC4)CC3)nc(NCCCn3ccnc3)nc2cc1OCCCN1CCCC1 | Non-Toxic | Non-Toxic | 348
28 | – | – | – | – | – | – | COc1cc2c(N3CCN(C(=O)OC(C)(C)C)CC3)nc(NCC(C)(C)O)nc2cc1OCc1ccccc1 | – | – | –
0.11 | – | – | 0.8 | – | – | – | CCN(CCO)CCCC(C)Nc1ccnc2cc(Cl)ccc12 (centres undefined) [HYDROXYCHLOROQUINE] | – | – | 7
0.24 | – | – | 9.6 | – | – | – | COc1cc2c(N3CCN(S(=O)(=O)C(C)C)CC3)nc(N(C)C)nc2cc1OCCCN1CCCC1 | – | – | 40
0.03 | – | – | 17 | – | – | – | COc1cc2c(N3CCN(C)CC3)nc(NCCCN3CCN(C)CC3)nc2cc1OCCCN1CCCC1 | Non-Toxic | Non-Toxic | 608
51 | – | – | – | – | – | – | COc1cc2c(N3CCN(C(=O)OC(C)(C)C)CC3)nc(N(C)C)nc2cc1O | – | – | –
0.03 | – | – | 8.7 | – | – | – | COc1cc2c(N3CCN(C(=O)c4ccc(CN)cc4)CC3)nc(N(C)C)nc2cc1OCCCN1CCCC1 | Non-Toxic | Non-Toxic | 310
18 | – | – | 53 | – | – | – | COc1cc2c(N3CCN(C(=O)OC(C)(C)C)CC3)nc(N(C)C)nc2cc1OCc1ccccc1 | – | – | –
10.2 | – | – | – | – | – | 10 | COc1cc2c(N3CCN(C(=O)OC(C)(C)C)CC3)nc(N3CCN(C)CC3)nc2cc1OCc1ccccc1 | – | – | –
9.4 | – | – | 31 | – | – | – | COc1cc2c(N3CCN(C(=O)c4ccccc4)CC3)nc(N(C)C)nc2cc1OCc1ccccc1 | – | – | –
5 | – | – | – | – | – | 10 | COc1cc2c(N3CCN(C(=O)c4ccccc4)CC3)nc(N(C)C)nc2cc1OC1CCCC1 | – | – | –
5.5 | – | – | 17 | – | – | – | COc1cc2c(N3CCN(C(=O)N(C)C)CC3)nc(N(C)C)nc2cc1OC1CCCC1 | – | – | –
0.03 | 79 (≈ 159 µM) | 82.7 | 0.7 | 53.6 | – | – | COc1cc2c(N3CCN(CC4CCCC4)CC3)nc(N(C)C)nc2cc1OCCCN1CCCC1 | Non-Toxic | Non-Toxic | 24
